Here are results for four molecules from patent US20080045535A1, “Prokineticin 2 receptor antagonists” (priority 2005, published 2008).

Broadly, the IC50 is the concentration at which inhibition is half-maximal.

In this experiment the target is T1, HEK 293 GPR73 (prokineticin 1 receptor) expressing cells (Homo sapiens, UniProt Q8TCW9).
T1 construct: expressed in transfected cells; host or cells: HEK 293
Briefly: PK1 functional assay: screening for PK1 antagonists on the FLIPR (calcium fluorescence). The class given is cell-based. Conditions: HEK 293 GPR73 cells; for inhibition at 10 µM: HEK293, compound at 10 μM, read-out: Ca^2+ Mobilization % Inh @10 μM; for IC50: PK1 ligand at EC50, multiple values = repeat tests, read-out: Ca^2+ Mobilization IC50. A digest of the protocol: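 HEK 293 cells expressing GPR73 were loaded with Calcium Plus Dye for 30 min at 37 C, then read for calcium fluorescence on FLIPR. Values were baseline-subtracted and expressed as percent of maximal control; percent inhibition is 100 minus that, and IC50 was fitted from it.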

T1 sequence (Q8TCW9 whole entry): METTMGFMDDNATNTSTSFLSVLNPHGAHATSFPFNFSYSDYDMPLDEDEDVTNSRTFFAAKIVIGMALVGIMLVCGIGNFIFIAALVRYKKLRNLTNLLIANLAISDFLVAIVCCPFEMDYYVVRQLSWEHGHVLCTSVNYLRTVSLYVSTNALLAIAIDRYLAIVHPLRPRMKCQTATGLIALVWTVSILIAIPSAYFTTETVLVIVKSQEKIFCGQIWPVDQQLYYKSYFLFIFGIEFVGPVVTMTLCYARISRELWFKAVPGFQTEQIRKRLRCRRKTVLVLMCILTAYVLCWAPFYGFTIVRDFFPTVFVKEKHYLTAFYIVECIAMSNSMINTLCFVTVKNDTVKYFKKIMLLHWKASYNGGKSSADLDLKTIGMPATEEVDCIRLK

With `COc1ccc(Cn2c(OCCNC(=N)N)cc(=O)n(Cc3ccc(OC)cc3)c2=O)cc1` [Cpd 158, N-{2-[1,3-Bis-(4-methoxy-benzyl)-2,6-dioxo-1,2,3,6-tetrahydro-pyrimidin-4-yloxy]-ethyl}-guanidine], the half-inhibitory concentration (IC50) worked out at 254 nM. Further, where the note is “multiple values = repeat tests”, the inhibition at 10 µM stood at 93%.

Consider `COc1ccc(Cn2c(SCCNC(=N)N)cc(=O)n(Cc3ccc(OC)cc3)c2=O)cc1` [Cpd 159, N-{2-[1,3-Bis-(4-methoxy-benzyl)-2,6-dioxo-1,2,3,6-tetrahydro-pyrimidin-4-ylsulfanyl]-ethyl}-guanidine], for which the concentration for half-maximal inhibition (IC50) stood at 13 nM. Moreover, where the note is “multiple values = repeat tests”, the inhibition at 10 µM amounted to 98%.

As to `COc1ccc(Cn2c(CCCNC(=N)N)cc(=O)n(Cc3ccc(OC)cc3)c2=O)cc1` [Cpd 160, N-{3-[1,3-Bis-(4-methoxy-benzyl)-2,6-dioxo-1,2,3,6-tetrahydro-pyrimidin-4-yl]-propyl}guanidine], the IC50 stood at 616 nM. Also, where the note is “multiple values = repeat tests”, the inhibition at 10 µM was found to be 89%.

Turning to “N-{2-[5-Benzyl-1-(4-methoxy-benzyl)-4,6-dioxo-1,4,5,6-tetrahydro-[1,3,5]triazin-2-ylamino]-ethyl}-oxyguanidine [Cpd 27]”, the IC50 was 1970 nM. Moreover, the “Ca^2+ Mobilization % Inh @10 μM” value (compound at 10 μM, multiple values = repeat tests) was 55%.
